Measurements from the NIST ThermoML archive (doi:10.1021/acs.jced.8b00537).
± gives the expanded uncertainty stated by the source.

Key:
[1] = 100 kPa, Liquid; for speed of sound: Frequency=3 MHz, Single path-length method; for mass density: Vibrating tube method; for viscosity: Capillary tube (Ostwald / Ubbelohde) method
[2] = xn = mol fraction of the nth substance listed; conditions: 100 kPa, Liquid, x2 = 0; for viscosity: Capillary tube (Ostwald / Ubbelohde) method; for speed of sound: Frequency=3 MHz, Single path-length method; for mass density: Vibrating tube method

CCCC[N+]1(C)CCCC1.O=S(=O)([N-]S(=O)(=O)C(F)(F)F)C(F)(F)F
[1]
Conditions | mass density [kg/m3] | speed of sound [m/s] | viscosity [mPa·s]
278.15 K | 1412.33 ± 3.3 | 1316.3 ± 6.3 | –
283.15 K | 1407.79 ± 3.2 | 1304.4 ± 6.3 | –
288.15 K | 1403.28 ± 3.2 | 1292.5 ± 6.3 | –
293.15 K | 1398.78 ± 3.2 | 1280.8 ± 6.3 | 97.14 ± 7.9
298.15 K | 1394.32 ± 3.2 | 1269.4 ± 6.3 | 76.54 ± 6.2
303.15 K | 1389.87 ± 3.2 | 1258.2 ± 6.3 | 61.31 ± 4.9
308.15 K | 1385.44 ± 3.2 | 1247.1 ± 6.3 | 49.84 ± 4
313.15 K | 1381.05 ± 3.2 | 1236.1 ± 6.3 | 41.08 ± 3.3
318.15 K | 1376.66 ± 3.2 | 1225.3 ± 6.3 | 34.3 ± 2.8
323.15 K | 1372.3 ± 3.1 | 1214.6 ± 6.3 | 28.98 ± 2.3
328.15 K | 1367.94 ± 3.1 | 1204.1 ± 6.3 | 24.76 ± 2
333.15 K | 1363.6 ± 3.1 | 1193.6 ± 6.3 | 20.74 ± 1.7
338.15 K | 1359.28 ± 3.1 | 1183.2 ± 6.3 | 18.03 ± 1.5
343.15 K | 1354.98 ± 3.1 | 1173 ± 6.3 | 15.8 ± 1.3

CCCO [propan-1-ol]
[1]
Conditions | mass density [kg/m3] | speed of sound [m/s] | viscosity [mPa·s]
278.15 K | 815.52 ± 1.6 | 1276 ± 6 | –
283.15 K | 811.6 ± 1.6 | 1258.7 ± 6 | –
288.15 K | 807.63 ± 1.6 | 1241.1 ± 6 | –
293.15 K | 803.65 ± 1.6 | 1223.8 ± 6 | 2.14 ± 0.17
298.15 K | 799.65 ± 1.6 | 1206.5 ± 6 | 1.897 ± 0.15
303.15 K | 795.61 ± 1.6 | 1189.4 ± 6 | 1.688 ± 0.14
308.15 K | 791.54 ± 1.6 | 1172.4 ± 6 | 1.506 ± 0.12
313.15 K | 787.43 ± 1.6 | 1155.5 ± 6 | 1.348 ± 0.11
318.15 K | 783.27 ± 1.6 | 1138.7 ± 6 | 1.211 ± 0.097
323.15 K | 779.05 ± 1.6 | 1121.9 ± 6 | 1.09 ± 0.087
328.15 K | 774.79 ± 1.6 | 1105.2 ± 6 | 0.985 ± 0.079
333.15 K | 770.44 ± 1.6 | 1088.3 ± 6 | 0.892 ± 0.072
338.15 K | 766.03 ± 1.5 | 1071.5 ± 6 | 0.81 ± 0.065
343.15 K | 761.53 ± 1.5 | 1054.5 ± 6 | 0.737 ± 0.059

CC[S+](CC)CC.O=S(=O)([N-]S(=O)(=O)C(F)(F)F)C(F)(F)F [triethylsulfonium bis((trifluoromethyl)sulfonyl)imide]
[1]
Conditions | mass density [kg/m3] | speed of sound [m/s] | viscosity [mPa·s]
278.15 K | 1479.52 ± 3 | 1284.8 ± 6.1 | –
283.15 K | 1474.62 ± 3 | 1274.1 ± 6.1 | –
288.15 K | 1469.71 ± 3 | 1263.3 ± 6.1 | –
293.15 K | 1464.83 ± 3 | 1252.9 ± 6.1 | 39.64 ± 3.2
298.15 K | 1459.98 ± 3 | 1242.5 ± 6.1 | 32.43 ± 2.6
303.15 K | 1455.14 ± 3 | 1232.4 ± 6.1 | 26.92 ± 2.2
308.15 K | 1450.33 ± 3 | 1222.4 ± 6.1 | 22.64 ± 1.8
313.15 K | 1445.52 ± 3 | 1212.7 ± 6.1 | 19.24 ± 1.5
318.15 K | 1440.74 ± 2.9 | 1203.1 ± 6.1 | 16.53 ± 1.3
323.15 K | 1435.99 ± 2.9 | 1193.7 ± 6.1 | 14.31 ± 1.1
328.15 K | 1431.27 ± 2.9 | 1184.7 ± 6.1 | 12.5 ± 1
333.15 K | 1426.57 ± 2.9 | 1175.9 ± 6.1 | 10.99 ± 0.88
338.15 K | 1421.87 ± 2.9 | 1166.8 ± 6.1 | 9.726 ± 0.78
343.15 K | 1417.19 ± 2.9 | 1157.6 ± 6.1 | 8.659 ± 0.69

CCCO [propan-1-ol] + C=CCn1cc[n+](C)c1.O=S(=O)([N-]S(=O)(=O)C(F)(F)F)C(F)(F)F
[2]
Conditions | mass density [kg/m3] | speed of sound [m/s] | viscosity [mPa·s]
293.15 K | 804 ± 2 | 1223.8 ± 6 | 2.14 ± 0.17
298.15 K | – | 1206.5 ± 6 | –
303.15 K | 796 ± 2 | 1189.4 ± 6 | 1.688 ± 0.14
308.15 K | 792 ± 2 | 1172.4 ± 6 | 1.506 ± 0.12
313.15 K | 787 ± 2 | 1155.5 ± 6 | 1.348 ± 0.11
318.15 K | 783 ± 2 | 1138.7 ± 6 | 1.211 ± 0.097
323.15 K | 779 ± 2 | 1121.9 ± 6 | 1.09 ± 0.087
328.15 K | 775 ± 2 | 1105.2 ± 6 | 0.985 ± 0.079
333.15 K | 770 ± 2 | 1088.3 ± 6 | 0.892 ± 0.072
338.15 K | 766 ± 2 | 1071.5 ± 6 | 0.81 ± 0.065
343.15 K | 762 ± 2 | 1054.5 ± 6 | 0.737 ± 0.059

O=S(=O)([N-]S(=O)(=O)C(F)(F)F)C(F)(F)F.On1cc[n+](O)c1 [1,3-dihydroxyimidazolium bis(trifluoromethylsulfonyl)imide]
[1]
Conditions | mass density [kg/m3] | speed of sound [m/s] | viscosity [mPa·s]
293.15 K | 1746.4 ± 4.3 | 1208.2 ± 6.3 | 238.6 ± 20
298.15 K | 1740.44 ± 4.3 | 1196.6 ± 6.3 | 171.83 ± 14
303.15 K | 1734.52 ± 4.3 | 1185.2 ± 6.3 | 127.52 ± 10
308.15 K | 1728.64 ± 4.3 | 1174.1 ± 6.3 | 96.92 ± 7.9
313.15 K | 1722.79 ± 4.2 | 1163.1 ± 6.3 | 75.56 ± 6.1
318.15 K | 1716.97 ± 4.2 | 1152.3 ± 6.3 | 59.8 ± 4.8
323.15 K | 1711.19 ± 4.2 | 1141.6 ± 6.3 | 48.29 ± 3.9
328.15 K | 1705.44 ± 4.2 | 1131.1 ± 6.3 | 39.57 ± 3.2
333.15 K | 1699.71 ± 4.2 | 1120.7 ± 6.3 | 32.88 ± 2.7
338.15 K | 1694.01 ± 4.2 | 1110.4 ± 6.3 | 27.69 ± 2.2
343.15 K | 1688.34 ± 4.1 | 1100.2 ± 6.3 | 23.59 ± 1.9

CCCO [propan-1-ol] + CC[S+](CC)CC.O=S(=O)([N-]S(=O)(=O)C(F)(F)F)C(F)(F)F
[2]
Conditions | mass density [kg/m3] | speed of sound [m/s] | viscosity [mPa·s]
293.15 K | 804 ± 2 | 1223.8 ± 6 | 2.14 ± 0.17
298.15 K | 800 ± 2 | 1206.5 ± 6 | 1.897 ± 0.15
303.15 K | 796 ± 2 | 1189.4 ± 6 | 1.688 ± 0.14
308.15 K | 792 ± 2 | 1172.4 ± 6 | 1.506 ± 0.12
313.15 K | 787 ± 2 | 1155.5 ± 6 | 1.348 ± 0.11
318.15 K | 783 ± 2 | 1138.7 ± 6 | 1.211 ± 0.097
323.15 K | 779 ± 2 | 1121.9 ± 6 | 1.09 ± 0.087
328.15 K | 775 ± 2 | 1105.2 ± 6 | 0.985 ± 0.079
333.15 K | 770 ± 2 | 1088.3 ± 6 | 0.892 ± 0.072
338.15 K | 766 ± 2 | 1071.5 ± 6 | 0.81 ± 0.065
343.15 K | 762 ± 2 | 1054.5 ± 6 | 0.737 ± 0.059

C=CCn1cc[n+](C)c1.O=S(=O)([N-]S(=O)(=O)C(F)(F)F)C(F)(F)F
[1]
Conditions | mass density [kg/m3] | speed of sound [m/s] | viscosity [mPa·s]
278.15 K | 1520.13 ± 3.2 | 1286.6 ± 6.2 | –
283.15 K | 1514.97 ± 3.2 | 1274.9 ± 6.2 | –
288.15 K | 1509.81 ± 3.2 | 1263.1 ± 6.2 | –
293.15 K | 1504.69 ± 3.2 | 1251.6 ± 6.2 | 41.83 ± 3.4
298.15 K | – | 1240.2 ± 6.2 | –
303.15 K | 1494.52 ± 3.2 | 1228.9 ± 6.2 | 28.51 ± 2.3
308.15 K | 1489.48 ± 3.2 | 1217.8 ± 6.2 | 23.96 ± 1.9
313.15 K | 1484.45 ± 3.2 | 1206.8 ± 6.2 | 20.41 ± 1.6
318.15 K | 1479.44 ± 3.2 | 1196 ± 6.2 | 17.51 ± 1.4
323.15 K | 1474.45 ± 3.1 | 1185.2 ± 6.2 | 15.19 ± 1.2
328.15 K | 1469.5 ± 3.1 | 1174.7 ± 6.2 | 13.23 ± 1.1
333.15 K | 1464.56 ± 3.1 | 1164.2 ± 6.2 | 11.62 ± 0.93
338.15 K | 1459.65 ± 3.1 | 1153.8 ± 6.2 | 10.28 ± 0.83
343.15 K | 1454.75 ± 3.1 | 1143.5 ± 6.2 | 9.125 ± 0.73

CCCO [propan-1-ol] + O=S(=O)([N-]S(=O)(=O)C(F)(F)F)C(F)(F)F.On1cc[n+](O)c1
[2]
Conditions | mass density [kg/m3] | speed of sound [m/s] | viscosity [mPa·s]
293.15 K | 804 ± 2 | 1223.8 ± 6 | 2.14 ± 0.17
298.15 K | 800 ± 2 | 1206.5 ± 6 | 1.897 ± 0.15
303.15 K | 796 ± 2 | 1189.4 ± 6 | 1.688 ± 0.14
308.15 K | 792 ± 2 | 1172.4 ± 6 | 1.506 ± 0.12
313.15 K | 787 ± 2 | 1155.5 ± 6 | 1.348 ± 0.11
318.15 K | 783 ± 2 | 1138.7 ± 6 | 1.211 ± 0.097
323.15 K | 779 ± 2 | 1121.9 ± 6 | 1.09 ± 0.087
328.15 K | 775 ± 2 | 1105.2 ± 6 | 0.985 ± 0.079
333.15 K | 770 ± 2 | 1088.3 ± 6 | 0.892 ± 0.072
338.15 K | 766 ± 2 | 1071.5 ± 6 | 0.81 ± 0.065
343.15 K | 762 ± 2 | 1054.5 ± 6 | 0.737 ± 0.059
